Results: paper PMC9856672, “SGC-CAMKK2-1: A Chemical Probe for CAMKK2” (Cells, 2023)
Like-named read-outs stand apart in the source and are kept apart here.

Experiments:
PIP4K2C = target: T1, PIP4K2C (Homo sapiens, UniProt Q8TBX8); assay: DiscoverX KINOMEscan binding assay at 1 μM, PIP4K2C
T1 construct: purchased Eurofins DiscoverX KINOMEscan
T1 sequence (Q8TBX8 1-421): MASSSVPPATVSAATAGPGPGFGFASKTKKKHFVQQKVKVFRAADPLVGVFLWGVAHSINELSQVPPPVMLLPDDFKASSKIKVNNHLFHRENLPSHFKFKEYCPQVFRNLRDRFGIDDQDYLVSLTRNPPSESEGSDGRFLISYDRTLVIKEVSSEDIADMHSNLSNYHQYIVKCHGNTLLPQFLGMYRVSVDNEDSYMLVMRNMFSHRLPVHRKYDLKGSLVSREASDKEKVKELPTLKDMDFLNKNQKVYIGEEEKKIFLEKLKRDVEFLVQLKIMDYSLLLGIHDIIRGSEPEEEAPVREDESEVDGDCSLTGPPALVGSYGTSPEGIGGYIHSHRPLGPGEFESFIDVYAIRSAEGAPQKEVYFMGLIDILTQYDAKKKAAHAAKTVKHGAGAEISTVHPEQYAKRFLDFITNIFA
Procedure: (§1) Compounds were screened at Eurofins DiscoverX (Freemont, CA) at a single concentration of 1 μM using binding assays as described previously. Briefly, extracts containing DNA-tagged kinases are incubated with immobilized kinase inhibitors and the test compound (at 1 μM). Test compounds that displace the immobilized broad-spectrum inhibitors are detected by quantitative PCR. The results are expressed as the percentage of kinase bound to the bead compared to DMSO control (%control). […] The formula to calculate S10 depicted in Equation (1). (1) S10(1 μM)=number of wild type kinase with % control ≤10/number of wild type kinase tested
(§2) In the DiscoverX KinomeSCAN® assay panel, when screened at a concentration of 1 µM, compound 7 bound to very few kinases with S10 (1 µM) = 0.005. The only two kinases with significant binding for compound 7 were PIP4K2C with a PoC = 7.2 and PIM2 with PoC = 7.4. PIP4K2C is a lipid kinase that has very little catalytic activity, and there is no commercially available kinase activity assay, so this potential off-target activity for the negative control remains uncharacterized.

CAMKK2 = CAMKK2 (Homo sapiens, UniProt Q96RR4); assay: DiscoverX KINOMEscan binding assay at 1 μM, CAMKK2; set-up: purchased Eurofins DiscoverX KINOMEscan
Chain of CAMKK2 (Q96RR4 whole entry): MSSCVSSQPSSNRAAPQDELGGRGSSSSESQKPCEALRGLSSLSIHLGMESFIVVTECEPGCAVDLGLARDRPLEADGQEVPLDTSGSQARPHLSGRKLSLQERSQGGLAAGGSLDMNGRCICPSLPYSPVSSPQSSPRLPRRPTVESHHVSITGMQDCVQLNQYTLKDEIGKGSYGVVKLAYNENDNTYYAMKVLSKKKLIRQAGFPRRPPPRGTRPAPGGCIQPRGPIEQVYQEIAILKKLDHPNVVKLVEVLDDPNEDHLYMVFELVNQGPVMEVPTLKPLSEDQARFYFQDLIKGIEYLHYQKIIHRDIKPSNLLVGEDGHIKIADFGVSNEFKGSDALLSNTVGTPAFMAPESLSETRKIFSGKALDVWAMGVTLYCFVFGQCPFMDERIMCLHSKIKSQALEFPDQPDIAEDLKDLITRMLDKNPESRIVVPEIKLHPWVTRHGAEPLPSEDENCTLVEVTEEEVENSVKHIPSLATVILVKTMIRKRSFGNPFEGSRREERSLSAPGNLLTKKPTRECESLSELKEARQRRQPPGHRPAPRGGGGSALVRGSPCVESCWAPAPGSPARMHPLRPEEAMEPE
Procedure: as §1
(§3) A series of furo [2,3-b]pyridines were generated with modifications off the core at the 3- and 5-positions. They were profiled in the CAMKK2 enzyme assay we have described and utilized previously. Briefly, the enzyme assay measures the ability of the compound to inhibit the transfer of a radiolabeled phosphate from ATP to a CAMKK2-specific peptide. […] 5 was then profiled in the DiscoverX KINOMEscan™ assay panel to provide a view of the overall kinome-wide selectivity (Supplemental S2). This assay platform evaluates compound affinity for a panel of more than 400 wild-type human kinases. The S10 (1 µM), a calculated score that is reflective of broad kinome selectivity, is 0.002 for the probe molecule.

MYO3B = target: T2, MYO3B (Homo sapiens, UniProt Q8WXR4); assay: DiscoverX KINOMEscan binding assay at 1 μM, MYO3B
T2 construct: purchased Eurofins DiscoverX KINOMEscan
T2 sequence (Q8WXR4 1-1341): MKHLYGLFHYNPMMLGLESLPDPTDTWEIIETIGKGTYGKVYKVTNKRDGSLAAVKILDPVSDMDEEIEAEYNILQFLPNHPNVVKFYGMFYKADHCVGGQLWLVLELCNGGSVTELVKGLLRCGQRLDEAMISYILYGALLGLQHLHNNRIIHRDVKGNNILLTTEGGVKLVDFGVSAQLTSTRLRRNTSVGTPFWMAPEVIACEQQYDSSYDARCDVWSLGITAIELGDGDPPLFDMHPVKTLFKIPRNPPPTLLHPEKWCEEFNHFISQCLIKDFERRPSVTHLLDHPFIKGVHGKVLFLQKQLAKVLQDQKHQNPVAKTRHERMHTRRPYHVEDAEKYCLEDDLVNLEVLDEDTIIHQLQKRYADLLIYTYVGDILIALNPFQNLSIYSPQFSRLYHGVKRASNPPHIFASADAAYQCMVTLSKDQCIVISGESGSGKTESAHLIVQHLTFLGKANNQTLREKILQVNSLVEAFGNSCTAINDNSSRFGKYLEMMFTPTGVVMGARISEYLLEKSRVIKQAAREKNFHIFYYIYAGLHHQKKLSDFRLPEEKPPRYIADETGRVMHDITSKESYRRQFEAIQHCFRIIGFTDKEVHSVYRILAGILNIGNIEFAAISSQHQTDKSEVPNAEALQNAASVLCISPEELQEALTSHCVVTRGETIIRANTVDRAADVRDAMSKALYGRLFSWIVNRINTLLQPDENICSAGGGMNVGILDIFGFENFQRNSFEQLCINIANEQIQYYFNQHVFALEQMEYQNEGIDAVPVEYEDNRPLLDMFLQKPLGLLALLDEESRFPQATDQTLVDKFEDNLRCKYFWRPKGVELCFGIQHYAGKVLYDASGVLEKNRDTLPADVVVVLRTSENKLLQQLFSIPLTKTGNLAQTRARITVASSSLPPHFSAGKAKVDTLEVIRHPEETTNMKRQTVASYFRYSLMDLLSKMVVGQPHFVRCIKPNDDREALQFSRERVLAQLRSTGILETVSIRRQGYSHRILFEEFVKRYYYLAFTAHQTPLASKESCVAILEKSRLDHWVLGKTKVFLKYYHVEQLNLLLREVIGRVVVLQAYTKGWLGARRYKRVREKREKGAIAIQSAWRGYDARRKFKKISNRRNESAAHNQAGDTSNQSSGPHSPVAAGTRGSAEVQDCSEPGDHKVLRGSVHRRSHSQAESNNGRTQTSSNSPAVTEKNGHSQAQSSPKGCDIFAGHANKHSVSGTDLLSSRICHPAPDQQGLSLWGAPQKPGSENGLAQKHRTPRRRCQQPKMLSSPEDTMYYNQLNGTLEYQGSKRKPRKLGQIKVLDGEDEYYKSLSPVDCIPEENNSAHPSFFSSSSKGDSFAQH
Procedure: as §1, §3

PIM2 = PIM2 (Homo sapiens, UniProt Q9P1W9); assay: DiscoverX KINOMEscan binding assay at 1 μM, PIM2; set-up: purchased Eurofins DiscoverX KINOMEscan
Chain of PIM2 (Q9P1W9 whole entry): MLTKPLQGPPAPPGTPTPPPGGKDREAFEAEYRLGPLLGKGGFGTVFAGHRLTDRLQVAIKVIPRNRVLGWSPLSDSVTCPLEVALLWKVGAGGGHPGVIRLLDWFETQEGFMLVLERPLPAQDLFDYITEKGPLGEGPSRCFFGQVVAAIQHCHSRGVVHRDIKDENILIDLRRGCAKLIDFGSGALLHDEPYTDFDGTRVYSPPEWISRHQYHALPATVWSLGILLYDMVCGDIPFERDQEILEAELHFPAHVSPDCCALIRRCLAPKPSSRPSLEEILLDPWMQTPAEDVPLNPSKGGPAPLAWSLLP
Procedure: as §1, §2

CAMKK1 = target: T3, CAMKK1 (Homo sapiens, UniProt Q8N5S9); assay: DiscoverX KINOMEscan binding assay at 1 μM, CAMKK1
T3 construct: purchased Eurofins DiscoverX KINOMEscan
T3 sequence (Q8N5S9 whole entry): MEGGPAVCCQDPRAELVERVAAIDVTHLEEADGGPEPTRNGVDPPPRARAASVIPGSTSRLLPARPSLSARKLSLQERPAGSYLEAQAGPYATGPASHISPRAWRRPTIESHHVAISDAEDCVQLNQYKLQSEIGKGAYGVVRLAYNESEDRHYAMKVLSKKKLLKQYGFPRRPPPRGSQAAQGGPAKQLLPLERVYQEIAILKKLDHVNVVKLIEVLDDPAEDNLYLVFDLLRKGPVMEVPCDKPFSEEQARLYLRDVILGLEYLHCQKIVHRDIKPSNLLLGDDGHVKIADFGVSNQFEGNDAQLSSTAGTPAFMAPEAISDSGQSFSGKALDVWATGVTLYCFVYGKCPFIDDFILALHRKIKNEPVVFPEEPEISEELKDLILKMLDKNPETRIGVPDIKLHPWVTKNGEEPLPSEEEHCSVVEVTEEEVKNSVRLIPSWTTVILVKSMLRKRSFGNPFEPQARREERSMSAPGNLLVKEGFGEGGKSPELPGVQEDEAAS
Procedure: as §1, §3

[1] = percentage of control, compound at 1 μM, read-out: PoC (1 μM) CAMKK2
[2] = percentage of control, compound at 1 μM, read-out: PoC (1 μM) CAMKK1

## O=C(O)c1ccc(-c2coc3ncc(-c4ccccc4)cc23)cc1Cl [SGC-CAMKK2-1N (UNC-YL-83)]
PIP4K2C; PIP5K2C (PIP4K2C), 1000 nM, read-out: Percent Control
  remaining binding at 1 µM: 7.2%
CAMKK2; CAMKK2, 1000 nM, read-out: Percent Control
  remaining binding at 1 µM: 84%
MYO3B; Compound Concentration 1000 nM, read-out: Percent Control
  remaining binding at 1 µM: 100%
PIM2; PIM2, 1000 nM, read-out: Percent Control
  remaining binding at 1 µM: 7.4%
CAMKK1; CAMKK1, 1000 nM, read-out: Percent Control
  remaining binding at 1 µM: 91%

## O=C(O)c1ccc(-c2coc3ncc(-c4ccccc4)cc23)cc1Cl [Compound 7]
PIP4K2C; percentage of control, compound at 1 μM, read-out: PoC (1 μM) PIP4K2C
  remaining binding at 1 µM: 7.2%
CAMKK2; [1]
  remaining binding at 1 µM: 84%
PIM2; percentage of control, compound at 1 μM, read-out: PoC (1 μM) PIM2
  remaining binding at 1 µM: 7.4%
CAMKK1; [2]
  remaining binding at 1 µM: 91%

## Cc1cccc(-c2cnc3occ(-c4ccc(C(=O)O)c(C5CCCC5)c4)c3c2)c1 [SGC-CAMKK2-1 (YL-36)]
PIP4K2C; 1000 nM, DiscoveRx PIP5K2C, Entrez PIP4K2C, read-out: Percent Control
  remaining binding at 1 µM: 61%
CAMKK2; 1000 nM, Entrez CAMKK2, read-out: Percent Control
  remaining binding at 1 µM: 7.5%
MYO3B; 1000 nM, Entrez MYO3B, read-out: Percent Control
  remaining binding at 1 µM: 100%
PIM2; 1000 nM, Entrez PIM2, read-out: Percent Control
  remaining binding at 1 µM: 96%
CAMKK1; 1000 nM, Entrez CAMKK1, read-out: Percent Control
  remaining binding at 1 µM: 15%

## Cc1cccc(-c2cnc3occ(-c4ccc(C(=O)O)c(C5CCCC5)c4)c3c2)c1 [Compound 5]
CAMKK2; [1]
  remaining binding at 1 µM: 5.4%
MYO3B; percentage of control, compound at 1 μM, read-out: PoC (1 μM) MYO3B
  remaining binding at 1 µM: 45%
CAMKK1; [2]
  remaining binding at 1 µM: 12%
